Measured values reported in ChEMBL document CHEMBL1201862, “PubChem BioAssay data set” (2004).
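Values below derive from 48-hour exposures of cells grown in 96-well plates, with endpoints linearly interpolated between the two concentrations bracketing the appropriate inhibition level. GI50 = concentration required for 50% inhibition of growth.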 The source made the active and inactive calls. No stated cut-off is given here; in the data, active = GI50 up to about 1.1 µM and inactive = higher.

How the values were obtained:
Test in all cases: NCI-60 cell line screen, 48 h
OVCAR-8 = test system: OVCAR-8
COLO 205 = test system: COLO 205
SW-620 = test system: SW-620
SK-OV-3 = test system: SK-OV-3
TK-10 = test system: TK-10
M14 = test system: M14
SNB-75 = test system: SNB-75
U-251 = test system: U-251
RPMI-8226 = test system: RPMI-8226
SN12C = test system: SN12C
OVCAR-3 = test system: OVCAR-3
RXF 393 = test system: RXF 393
SK-MEL-5 = test system: SK-MEL-5
HCC 2998 = test system: HCC 2998
MDA-MB-435 = test system: MDA-MB-435
MDA-MB-231 = test system: MDA-MB-231
T47D = test system: T47D
MCF7 = test system: MCF7

Measured: GI50

Cc1ccc(NC(=O)C2C(=O)N(c3ccc(C)c(C)c3)C(=O)/C2=N/O)cc1C (centres undefined)
inactive: OVCAR-8 > 100 µM | COLO 205 > 100 µM | SW-620 19.3 µM | SK-OV-3 > 100 µM | TK-10 > 100 µM | M14 > 100 µM | SNB-75 > 100 µM | U-251 > 100 µM | RPMI-8226 > 100 µM | SN12C > 100 µM | OVCAR-3 > 100 µM | RXF 393 > 100 µM | SK-MEL-5 > 100 µM | HCC 2998 > 100 µM

C=C1c2[nH]c3c([N+](=O)[O-])c(OC)ccc3c2CCN1C(C)=O
inactive: OVCAR-8 > 100 µM | COLO 205 > 100 µM | SW-620 > 100 µM | TK-10 > 100 µM | M14 > 100 µM | SNB-75 25 µM | U-251 > 100 µM | RPMI-8226 > 100 µM | SN12C > 100 µM | OVCAR-3 > 100 µM | RXF 393 > 100 µM | HCC 2998 > 100 µM

Oc1nnc(-c2ccc(F)cc2)cc1-c1ccccc1
inactive: OVCAR-8 50.4 µM | MDA-MB-435 > 100 µM | COLO 205 > 100 µM | MDA-MB-231 > 100 µM | SW-620 > 100 µM | SK-OV-3 42.6 µM | TK-10 71.4 µM | M14 > 100 µM | T47D 44.2 µM | U-251 35.8 µM | RPMI-8226 75 µM | MCF7 71.4 µM | SN12C > 100 µM | OVCAR-3 23.4 µM | RXF 393 46.1 µM | SK-MEL-5 > 100 µM | HCC 2998 78.5 µM

COc1ccc(C2=NN(C(=O)COc3ccc(Cl)cc3)C(O)(c3ccc(Cl)cc3)C2)cc1 (centres undefined)
inactive: OVCAR-8 > 100 µM | COLO 205 > 100 µM | SW-620 > 100 µM | SK-OV-3 > 100 µM | TK-10 > 100 µM | M14 > 100 µM | SNB-75 > 100 µM | U-251 > 100 µM | RPMI-8226 > 100 µM | SN12C > 100 µM | OVCAR-3 > 100 µM | HCC 2998 > 100 µM

CCOC(=O)C(C)(c1c(C)[nH]c2ccccc12)c1c(C)[nH]c2ccccc12
inactive: OVCAR-8 26.8 µM | SW-620 16.9 µM | SK-OV-3 26 µM | TK-10 18.7 µM | M14 14.4 µM | SNB-75 17.6 µM | U-251 16.9 µM | RPMI-8226 16.8 µM | OVCAR-3 16 µM | RXF 393 12.9 µM | SK-MEL-5 15.7 µM | HCC 2998 23.3 µM

COc1cc(Nc2nc3ccc(C(F)(F)F)cc3nc2-c2ccccc2)cc(OC)c1OC
inactive: OVCAR-8 28.2 µM | COLO 205 > 10 µM | SW-620 85.3 µM | SK-OV-3 > 100 µM | TK-10 > 100 µM | M14 9.93 µM | SNB-75 > 100 µM | U-251 32.7 µM | SN12C 18.7 µM | OVCAR-3 40.6 µM | RXF 393 30 µM | SK-MEL-5 16.4 µM | HCC 2998 4.23 µM

Cc1c(Cl)c(=O)oc2cc(OCC(O)COC(C)C)ccc12 (centres undefined)
inactive: OVCAR-8 33.7 µM | MDA-MB-435 60.3 µM | COLO 205 14 µM | SW-620 34.4 µM | SK-OV-3 > 100 µM | TK-10 35.2 µM | M14 32.2 µM | T47D 69.7 µM | U-251 44.9 µM | RPMI-8226 50.6 µM | MCF7 22 µM | OVCAR-3 97.5 µM | SK-MEL-5 19.8 µM | HCC 2998 16.8 µM
